Reference: US10670605B2, “Cysteine reactive probes and uses thereof” (The Scripps Research Institute, priority 2015, dated 2020)

Columns and labels:
Experiment in all cases: Competitive isoTOP-ABPP, cell lysates;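 for isoTOP-ABPP reactivity profile ratio, O00170 C122: Heavy/light ratio DMSO over fragment-treated so higher means more cysteine engagement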;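 for isoTOP-ABPP reactivity profile ratio, P68036 C86: Heavy/light ratio DMSO over fragment-treated so higher means more cysteine engagement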
Format in all cases: binding
AIP C122 (O00170) = molecular target: T1, AIP C122 (O00170) (Homo sapiens, UniProt O00170); settings: 500 μm;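 for isoTOP-ABPP reactivity profile ratio, O00170 C122: Heavy/light ratio DMSO over fragment-treated so higher means more cysteine engagement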
T1 sequence (O00170 1-330): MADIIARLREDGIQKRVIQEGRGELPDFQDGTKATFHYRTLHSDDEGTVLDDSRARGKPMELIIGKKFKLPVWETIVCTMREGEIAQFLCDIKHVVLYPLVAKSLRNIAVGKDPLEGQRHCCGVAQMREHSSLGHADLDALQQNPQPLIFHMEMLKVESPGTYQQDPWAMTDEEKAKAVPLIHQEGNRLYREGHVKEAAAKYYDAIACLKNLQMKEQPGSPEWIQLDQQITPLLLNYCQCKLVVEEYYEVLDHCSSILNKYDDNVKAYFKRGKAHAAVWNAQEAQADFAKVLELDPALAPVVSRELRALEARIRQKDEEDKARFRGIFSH

DCUN1D1 C115 (Q96GG9) = DCUN1D1 C115 (Q96GG9) (Homo sapiens, UniProt Q96GG9); settings: 500 μm, in-vitro_ramos
PDIA6 C55 (Q15084) = molecular target: T2, PDIA6 C55 (Q15084) (Homo sapiens, UniProt Q15084); settings: 500 μm
T2 sequence (Q15084 20-440): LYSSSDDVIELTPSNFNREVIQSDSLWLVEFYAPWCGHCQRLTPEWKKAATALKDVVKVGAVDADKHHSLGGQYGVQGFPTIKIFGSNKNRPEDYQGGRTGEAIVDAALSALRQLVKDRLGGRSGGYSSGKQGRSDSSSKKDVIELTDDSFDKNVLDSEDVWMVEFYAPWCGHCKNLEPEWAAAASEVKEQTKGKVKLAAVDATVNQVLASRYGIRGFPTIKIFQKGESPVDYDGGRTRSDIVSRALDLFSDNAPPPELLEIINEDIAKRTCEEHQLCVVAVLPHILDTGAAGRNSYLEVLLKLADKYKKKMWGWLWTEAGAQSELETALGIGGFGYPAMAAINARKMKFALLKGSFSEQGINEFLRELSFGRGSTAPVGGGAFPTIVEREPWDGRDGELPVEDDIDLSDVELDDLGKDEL

SAMHD1 C522 (Q9Y3Z3) = SAMHD1 C522 (Q9Y3Z3) (Homo sapiens, UniProt Q9Y3Z3); settings: 500 μm
SMARCC2 C145 (Q8TAQ2) = SMARCC2 C145 (Q8TAQ2) (Homo sapiens, UniProt Q8TAQ2); settings: 500 μm
STAT3 C259 (P40763) = STAT3 C259 (P40763) (Homo sapiens, UniProt P40763); settings: 500 μm, in-vitro_ramos_231
UBE2L3 C86 (P68036) = UBE2L3 C86 (P68036) (Homo sapiens, UniProt P68036); settings: 500 μm;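 for isoTOP-ABPP reactivity profile ratio, P68036 C86: Heavy/light ratio DMSO over fragment-treated so higher means more cysteine engagement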
ACAT1 C196 (P24752) = molecular target: T3, ACAT1 C196 (P24752) (Homo sapiens, UniProt P24752); settings: 500 μm
T3 sequence (P24752 34-427): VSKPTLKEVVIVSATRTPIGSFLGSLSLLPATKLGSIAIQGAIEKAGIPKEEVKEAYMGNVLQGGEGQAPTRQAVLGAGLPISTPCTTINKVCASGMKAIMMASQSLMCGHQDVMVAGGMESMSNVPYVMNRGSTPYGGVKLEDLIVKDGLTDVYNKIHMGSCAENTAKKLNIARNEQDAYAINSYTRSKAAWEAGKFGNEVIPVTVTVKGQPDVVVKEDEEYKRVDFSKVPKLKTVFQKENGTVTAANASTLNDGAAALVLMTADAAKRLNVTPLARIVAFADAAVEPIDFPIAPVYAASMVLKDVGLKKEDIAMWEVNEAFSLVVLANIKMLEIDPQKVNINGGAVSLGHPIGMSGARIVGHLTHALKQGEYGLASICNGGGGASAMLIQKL

ACAT1 C413 (P24752) = molecular target: T4, ACAT1 C413 (P24752) (Homo sapiens, UniProt P24752); settings: 500 μm
T4 sequence (P24752 34-427): T3 sequence (P24752 34-427)

ACAT1 C126 (P24752) = molecular target: T5, ACAT1 C126 (P24752) (Homo sapiens, UniProt P24752); settings: 500 μm
T5 sequence (P24752 34-427): T3 sequence (P24752 34-427)

isoTOP-ABPP reactivity ratio, O00170_C122 (AIP C122 (O00170); in-vitro_ramos) | isoTOP-ABPP reactivity ratio, Q96GG9_C115 (DCUN1D1 C115 (Q96GG9)) | isoTOP-ABPP reactivity ratio, Q15084_C55 (PDIA6 C55 (Q15084); in-vitro_ramos) | isoTOP-ABPP reactivity ratio, Q15084_C55 (PDIA6 C55 (Q15084); in-vitro_ramos_231) | isoTOP-ABPP reactivity ratio, Q8TAQ2_C145 (SMARCC2 C145 (Q8TAQ2); in-vitro_ramos) | isoTOP-ABPP reactivity ratio, Q8TAQ2_C145 (SMARCC2 C145 (Q8TAQ2); in-vitro_ramos_231) | isoTOP-ABPP reactivity ratio, P40763_C259 (STAT3 C259 (P40763)) | isoTOP-ABPP reactivity ratio, P68036_C86 (UBE2L3 C86 (P68036); in-vitro_ramos) | isoTOP-ABPP reactivity ratio, P68036_C86 (UBE2L3 C86 (P68036); in-vitro_ramos_231) | isoTOP-ABPP reactivity ratio, P24752_C196 (ACAT1 C196 (P24752); in-vitro_ramos) | isoTOP-ABPP reactivity ratio, P24752_C196 (ACAT1 C196 (P24752); in-vitro_ramos_231) | isoTOP-ABPP reactivity ratio, P24752_C413 (ACAT1 C413 (P24752); in-vitro_ramos) | isoTOP-ABPP reactivity ratio, P24752_C413 (ACAT1 C413 (P24752); in-vitro_ramos_231) | isoTOP-ABPP reactivity ratio, P24752_C126 (ACAT1 C126 (P24752); in-vitro_ramos_231) | SMILES | other results
0.6 | 0.9 | 1.1 | 1.2 | 0.9 | 1.1 | 1.7 | 1.3 | 1.7 | 0.9 | 1.2 | 1.0 | 1.6 | 1.1 | C=CC(=O)N(Cc1cccnc1)c1cc(C(F)(F)F)cc(C(F)(F)F)c1 [compound 31] | isoTOP-ABPP reactivity ratio, Q9Y3Z3_C522 (SAMHD1 C522 (Q9Y3Z3); in-vitro_ramos_231): 1.5
1.9 | 0.9 | 20.0 | 20.0 | 20.0 | 20.0 | 10.2 | 0.9 | 1.1 | 2.0 | 2.3 | 4.1 | 6.8 | 7.3 | CC(C)(C)c1cc(NC(=O)CCl)on1 [compound 32] | isoTOP-ABPP reactivity ratio, O00170_C122 (AIP C122 (O00170); in-vitro_ramos_231): 3.7; isoTOP-ABPP reactivity ratio, Q9Y3Z3_C522 (SAMHD1 C522 (Q9Y3Z3); in-vitro_ramos): 1.8; isoTOP-ABPP reactivity ratio, P24752_C126 (ACAT1 C126 (P24752); in-vitro_ramos): 8.6
 |  |  |  |  |  |  |  |  |  |  |  |  |  | O=C(CCl)Nc1ccc(-c2ccccc2)cc1 [compound 52] | isoTOP-ABPP reactivity profile ratio, O00170_C122 (AIP C122 (O00170); in-vitro_ramos): 1.4; isoTOP-ABPP reactivity profile ratio, Q96GG9_C115 (DCUN1D1 C115 (Q96GG9)): 1.0; isoTOP-ABPP reactivity profile ratio, Q15084_C55 (PDIA6 C55 (Q15084); in-vitro_ramos): 1.8; isoTOP-ABPP reactivity profile ratio, Q15084_C55 (PDIA6 C55 (Q15084); in-vitro_ramos_231): 1.1; isoTOP-ABPP reactivity profile ratio, Q9Y3Z3_C522 (SAMHD1 C522 (Q9Y3Z3); in-vitro_ramos_231): 1.2; isoTOP-ABPP reactivity profile ratio, Q8TAQ2_C145 (SMARCC2 C145 (Q8TAQ2); in-vitro_ramos): 1.8; isoTOP-ABPP reactivity profile ratio, Q8TAQ2_C145 (SMARCC2 C145 (Q8TAQ2); in-vitro_ramos_231): 0.9; isoTOP-ABPP reactivity profile ratio, P40763_C259 (STAT3 C259 (P40763)): 2.2; isoTOP-ABPP reactivity profile ratio, P68036_C86 (UBE2L3 C86 (P68036); in-vitro_ramos): 1.3; isoTOP-ABPP reactivity profile ratio, P68036_C86 (UBE2L3 C86 (P68036); in-vitro_ramos_231): 0.8; isoTOP-ABPP reactivity profile ratio, P24752_C196 (ACAT1 C196 (P24752); in-vitro_ramos): 1.5; isoTOP-ABPP reactivity profile ratio, P24752_C196 (ACAT1 C196 (P24752); in-vitro_ramos_231): 1.3; isoTOP-ABPP reactivity profile ratio, P24752_C413 (ACAT1 C413 (P24752); in-vitro_ramos): 1.5; isoTOP-ABPP reactivity profile ratio, P24752_C413 (ACAT1 C413 (P24752); in-vitro_ramos_231): 1.9; isoTOP-ABPP reactivity profile ratio, P24752_C126 (ACAT1 C126 (P24752); in-vitro_ramos_231): 1.3
